According to ChEMBL document CHEMBL1127426, “Androgen receptor affinity of 5'-acyl furanosteroids” (1994):

Key:
[1] = biological target: T1, Androgen receptor (Rattus norvegicus) (UniProt P15207); experiment: Effective dose required to inhibit testosterone propionate-stimulated prostate weight gain by 50% […].; type: tissue-based; conditions: Prostate gland
T1 sequence (whole entry): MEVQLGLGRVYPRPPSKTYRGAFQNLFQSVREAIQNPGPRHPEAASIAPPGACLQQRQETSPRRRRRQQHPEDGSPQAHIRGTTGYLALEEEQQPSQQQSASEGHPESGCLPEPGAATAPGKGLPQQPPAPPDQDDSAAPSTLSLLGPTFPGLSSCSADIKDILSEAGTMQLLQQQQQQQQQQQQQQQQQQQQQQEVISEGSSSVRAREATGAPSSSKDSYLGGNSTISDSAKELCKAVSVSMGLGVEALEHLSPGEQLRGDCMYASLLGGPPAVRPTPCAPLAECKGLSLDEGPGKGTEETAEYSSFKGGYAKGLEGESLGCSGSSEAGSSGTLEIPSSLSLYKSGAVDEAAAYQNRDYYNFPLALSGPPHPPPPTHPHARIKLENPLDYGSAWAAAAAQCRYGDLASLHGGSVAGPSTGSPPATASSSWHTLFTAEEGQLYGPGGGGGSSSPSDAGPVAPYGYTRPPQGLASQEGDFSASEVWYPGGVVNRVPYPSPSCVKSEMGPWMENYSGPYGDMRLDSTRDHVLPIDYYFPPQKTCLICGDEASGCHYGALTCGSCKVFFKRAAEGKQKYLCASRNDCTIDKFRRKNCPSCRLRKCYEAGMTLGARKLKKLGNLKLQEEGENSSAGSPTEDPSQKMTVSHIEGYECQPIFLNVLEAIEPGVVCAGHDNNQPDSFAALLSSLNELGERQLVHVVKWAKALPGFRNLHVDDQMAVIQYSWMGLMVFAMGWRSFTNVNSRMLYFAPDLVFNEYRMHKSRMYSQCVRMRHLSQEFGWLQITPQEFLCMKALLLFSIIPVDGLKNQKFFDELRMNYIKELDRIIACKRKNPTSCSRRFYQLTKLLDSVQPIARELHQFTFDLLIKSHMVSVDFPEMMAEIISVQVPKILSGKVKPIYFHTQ

[2] = biological target: T1, Androgen receptor (Rattus norvegicus); conditions: Prostate gland; filed as agonist
Rattus norvegicus = species: Rattus norvegicus; experiment: Effective dose required for the compound to inhibit testosterone propionate-stimulated prostate weight gain by 50% […].; type: functional; conditions: Prostate gland

C[C@]12CCC3C(CC[C@H]4Cc5oc(C(=O)c6ccccc6)cc5C[C@]34C)C1CC[C@@H]2O (stereo partly specified)
ED50 [1]: > 100 mg/kg

CC(C)C(=O)c1cc2c(o1)C[C@@H]1CCC3C4CC[C@H](O)[C@@]4(C)CCC3[C@@]1(C)C2 (stereo partly specified)
ED50 [2]: Agonist

CCC(=O)c1cc2c(o1)C[C@@H]1CCC3C4CC[C@H](O)[C@@]4(C)CCC3[C@@]1(C)C2 (stereo partly specified)
ED50 [1]: 33 mg/kg

CCCC(=O)c1cc2c(o1)C[C@@H]1CCC3C4CC[C@H](O)[C@@]4(C)CCC3[C@@]1(C)C2 (stereo partly specified)
ED50 [1]: > 75 mg/kg

C#C[C@]1(O)CCC2C3CC[C@H]4Cc5oc(C(=O)O)cc5C[C@]4(C)C3CC[C@@]21C (stereo partly specified)
ED50 [1]: > 100 mg/kg

C#C[C@]1(O)CCC2C3CC[C@H]4Cc5oc(C=O)cc5C[C@]4(C)C3CC[C@@]21C (stereo partly specified)
ED50 [1]: 100 mg/kg

CC[C@]1(O)CCC2C3CC[C@H]4Cc5oc(C(C)=O)cc5C[C@]4(C)C3CC[C@@]21C (stereo partly specified)
ED50 [2]: Agonist

C#C[C@]1(O)CCC2C3CC[C@H]4Cc5oc(C(C)=O)cc5C[C@@H]4C3CC[C@@]21C (stereo partly specified)
ED50 [1]: 100 mg/kg

C=C[C@]1(O)CCC2C3CC[C@H]4Cc5oc(C(C)=O)cc5C[C@]4(C)C3CC[C@@]21C (stereo partly specified)
ED50 [2]: Agonist

C[C@]12CCC3C(CC[C@H]4Cc5oc(C(=O)O)cc5C[C@]34C)C1CC[C@@H]2O (stereo partly specified)
ED50 [1]: > 100 mg/kg

C[C@]12CCC3C(CC[C@H]4Cc5oc(C(=O)C6CC6)cc5C[C@]34C)C1CC[C@@H]2O (stereo partly specified)
ED50 [1]: 100 mg/kg

C#C[C@]1(O)CCC2C3CC[C@H]4Cc5oc(C(=O)OC)cc5C[C@]4(C)C3CC[C@@]21C (stereo partly specified)
ED50 [1]: > 50 mg/kg

C[C@]12CCC3C(CC[C@H]4Cc5oc(C=O)cc5C[C@H]34)C1CC[C@@H]2O (stereo partly specified)
ED50 [1]: > 100 mg/kg

C#C[C@]1(O)CCC2C3CC[C@H]4Cc5oc(C(=O)CC)cc5C[C@]4(C)C3CC[C@@]21C (stereo partly specified)
ED50 [1]: 30 mg/kg

CC1(C(=O)c2cc3c(o2)C[C@@H]2CCC4C5CC[C@H](O)[C@@]5(C)CCC4[C@@]2(C)C3)CC1 (stereo partly specified)
ED50 [1]: > 100 mg/kg

C#C[C@]1(O)CCC2C3CC[C@H]4Cc5oc(C(=O)C(Cl)(Cl)Cl)cc5C[C@]4(C)C3CC[C@@]21C (stereo partly specified)
ED50 [2]: Agonist

COc1ccc(C(=O)c2cc3c(o2)C[C@@H]2CCC4C5CC[C@H](O)[C@@]5(C)CCC4[C@@]2(C)C3)cc1 (stereo partly specified)
ED50 (Rattus norvegicus): > 100 mg/kg

C#C[C@]1(O)CCC2C3CC[C@H]4Cc5oc(C(C)=O)cc5C[C@]4(C)C3CC[C@@]21C (stereo partly specified)
ED50 [1]: > 100 mg/kg

CC(=O)c1cc2cc3c(cc2o1)CC[C@@H]1[C@@H]3CC[C@]2(C)[C@@H](O)CC[C@@H]12
ED50 [1]: 100 mg/kg

C#C[C@]1(O)CCC2C3CC[C@H]4Cc5oc(C(N)=O)cc5C[C@]4(C)C3CC[C@@]21C (stereo partly specified)
ED50 [1]: 56 mg/kg

COC(=O)c1cc2c(o1)C[C@@H]1CCC3C4CC[C@H](O)[C@@]4(C)CCC3[C@@]1(C)C2 (stereo partly specified)
ED50 [1]: > 100 mg/kg

C[C@]12CCC3C(CC[C@H]4Cc5oc(C(=O)C(F)(F)F)cc5C[C@]34C)C1CC[C@@H]2O (stereo partly specified)
ED50 [2]: Agonist

C[C@]12CCC3C(CC[C@H]4Cc5oc(C(=O)C6CCC6)cc5C[C@]34C)C1CC[C@@H]2O (stereo partly specified)
ED50 [2]: Agonist

C#C[C@]1(O)CCC2C3CC[C@H]4Cc5oc(C(=O)C(F)(F)F)cc5C[C@]4(C)C3CC[C@@]21C (stereo partly specified)
ED50 [2]: Agonist

C[C@]12CCC3C(CC[C@H]4Cc5occc5C[C@]34C)C1CC[C@@H]2O (stereo partly specified)
ED50 [1]: > 100 mg/kg

C[C@]12CCC3C(CC[C@H]4Cc5oc(C=O)cc5C[C@]34C)C1CC[C@@H]2O (stereo partly specified)
ED50 [1]: > 100 mg/kg

CC(=O)c1cc2c(o1)C[C@@H]1CCC3C(CC[C@@]4(C)C3CC[C@@H]4O)[C@H]1C2 (stereo partly specified)
ED50 [2]: Agonist

C#C[C@]1(O)CCC2C3CC[C@H]4Cc5oc(C(=O)C6CC6)cc5C[C@]4(C)C3CC[C@@]21C (stereo partly specified)
ED50 [2]: Agonist

CC(=O)c1cc2c(o1)C[C@@H]1CCC3C4CC[C@H](O)[C@@]4(C)CCC3[C@@]1(C)C2 (stereo partly specified)
ED50 [2]: Agonist

CC(C)(C)C(=O)c1cc2c(o1)C[C@@H]1CCC3C4CC[C@H](O)[C@@]4(C)CCC3[C@@]1(C)C2 (stereo partly specified)
ED50 [1]: > 100 mg/kg

C#C[C@]1(O)CCC2C3CC[C@H]4Cc5oc(C(=O)C(C)C)cc5C[C@]4(C)C3CC[C@@]21C (stereo partly specified)
ED50 [2]: Agonist
